Reference: patent publication US20020137929A1, “1 - (3-heterocyclylphenyl) isothiourea, -isourea, -guanidine and -amidine herbicidal agents” (Intellectual Property Department, BASF Aktiengesellschaft, priority 1998, published 2002)

Experiments:
AMBEL (Ragweed, Common) = experiment: Postemergence herbicidal evaluation; format: in vivo, Ambrosia artemisifolia; conditions: postemergence
Method in brief: (§1)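 Herbicidal effect was judged by eye on a 0–9 scale covering stand, vigor, deformity, size and chlorosis, compared with controls, four to five weeks after seedlings about two weeks old were sprayed (40 psi, ~0.0156–0.500 kg/ha).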

[1] = test system: SAGPY (Arrowhead (Pygmaea)); experiment: Preemergence weed control under flooded paddy conditions; format: in vivo, Sagittaria pygmaea; conditions: rated 3-4 weeks after treatment
Method in brief: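 Herbicidal effect is scored visually on a 0-9 scale against an untreated control, three to four weeks after compounds are pipetted into the flood water (1.5 to 3 cm deep) over seeds planted in silt loam at 0.5 cm depth. Rates: about 0.0313 to 0.500 kg/ha.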

GALAP (Galium) = experiment: Postemergence herbicidal evaluation; format: in vivo, Galium aparine; conditions: postemergence
Method in brief: as §1

[2] = test system: TRZAWR (Wheat, Winter, cv Riband); experiment: Preemergence herbicidal evaluation; format: in vivo, Triticum aestivum; conditions: rated 4-5 weeks after treatment
Method in brief: (§2)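 In this greenhouse assay, monocot and dicot seeds are planted in soil and treated prior to emergence with an aqueous acetone spray (about 0.0156-0.500 kg/ha). Plants are assessed visually against control on a 0-9 scale after 4-5 weeks.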

CASOB (Sicklepod) [3] = experiment: Postemergence herbicidal evaluation; format: in vivo, Cassia obtusifolia; conditions: postemergence
Method in brief: as §1

[4] = test system: IPOHE (Morningglory, Ivyleaf); experiment: Postemergence herbicidal evaluation; format: in vivo, Ipomoea hederacea; conditions: postemergence
Method in brief: as §1

ECHCG (Barnyardgrass) = experiment: Preemergence herbicidal evaluation; format: in vivo, Echinochloa crus-galli; conditions: rated 4-5 weeks after treatment
Method in brief: as §2

[5] = test system: IPOHE (Morningglory, Ivyleaf); experiment: Preemergence herbicidal evaluation; format: in vivo, Ipomoea hederacea; conditions: rated 4-5 weeks after treatment
Method in brief: as §2

ABUTH (Velvetleaf) = experiment: Preemergence herbicidal evaluation; format: in vivo, Abutilon theophrasti; conditions: rated 4-5 weeks after treatment
Method in brief: as §2

[6] = test system: GLXMAW (Soybean, Williams); experiment: Preemergence herbicidal evaluation; format: in vivo, Glycine max, (L.) Merr. cv Williams; conditions: rated 4-5 weeks after treatment
Method in brief: as §2

CASOB (Sicklepod) [7] = experiment: Preemergence herbicidal evaluation; format: in vivo, Cassia obtusifolia; conditions: rated 4-5 weeks after treatment
Method in brief: as §2

ZEAMX (Corn, Field) = experiment: Preemergence herbicidal evaluation; format: in vivo, Zea mays; conditions: rated 4-5 weeks after treatment
Method in brief: as §2

CYPIR (Rice Flatsedge) = experiment: Postemergence weed control under flooded paddy conditions; format: in vivo, Cyperus iria; conditions: postemergence weeds, rated 3 to 4 weeks after treatment
Method in brief: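 Containers holding 3–5 cm weeds and rice at 1.5–2.5 leaves are flooded to 1.5–3 cm above soil. Compound in 50/50 v/v aqueous/acetone is then added directly to the water, about 0.0313–0.500 kg/ha. Plants are kept in the greenhouse and rated 0–9 visually at 3–4 weeks.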

SMILES: CCOC(=O)[C@H](Cc1ccccc1)N1C(=O)CSC1=Nc1cc(-n2c(=O)cc(C(F)(F)F)n(C)c2=O)c(F)cc1Cl [Compound 80, Ethyl α-benzyl-2-{{2-chloro-5-[3,6-dihydro-3-methyl-2,6-dioxo-4-(trifluoromethyl)-1(2H)-pyrimidinyl]-4-fluorophenyl}imino}-4-oxo-3-thiazolidineacetate, L-]
- AMBEL herbicidal rating (AMBEL (Ragweed, Common); rate 0.0158 kg/ha): 9.0
- AMBEL herbicidal rating (AMBEL (Ragweed, Common); rate 0.0315 kg/ha): 9.0
- AMBEL herbicidal rating (AMBEL (Ragweed, Common); rate 0.0630 kg/ha): 7.0
- SAGPY herbicidal effect rating ([1]; 0.0313 kg/ha): 0.0
- SAGPY herbicidal effect rating ([1]; 0.0625 kg/ha): 0.0
- SAGPY herbicidal effect rating ([1]; 0.1250 kg/ha): 0.0
- SAGPY herbicidal effect rating ([1]; 0.2500 kg/ha): 0.0
- GALAP herbicidal rating (GALAP (Galium); rate 0.0158 kg/ha): 2.0
- GALAP herbicidal rating (GALAP (Galium); rate 0.0315 kg/ha): 4.0
- GALAP herbicidal rating (GALAP (Galium); rate 0.0630 kg/ha): 5.0
- Preemergence herbicidal rating TRZAWR ([2]; rate 0.0156 kg/ha): 0.0
- Preemergence herbicidal rating TRZAWR ([2]; rate 0.0313 kg/ha): 0.0
- Preemergence herbicidal rating TRZAWR ([2]; rate 0.0625 kg/ha): 0.0
- Preemergence herbicidal rating TRZAWR ([2]; rate 0.1250 kg/ha): 2.0
- Preemergence herbicidal rating TRZAWR ([2]; rate 0.2500 kg/ha): 1.0
- CASOB herbicidal rating (CASOB (Sicklepod) [3]; rate 0.0158 kg/ha): 1.0
- CASOB herbicidal rating (CASOB (Sicklepod) [3]; rate 0.0315 kg/ha): 5.0
- CASOB herbicidal rating (CASOB (Sicklepod) [3]; rate 0.0630 kg/ha): 9.0
- IPOHE herbicidal rating ([4]; rate 0.0158 kg/ha): 9.0
- IPOHE herbicidal rating ([4]; rate 0.0315 kg/ha): 9.0
- IPOHE herbicidal rating ([4]; rate 0.0630 kg/ha): 9.0
- Preemergence herbicidal rating ECHCG (ECHCG (Barnyardgrass); rate 0.0156 kg/ha): 0.0
- Preemergence herbicidal rating ECHCG (ECHCG (Barnyardgrass); rate 0.0313 kg/ha): 0.0
- Preemergence herbicidal rating ECHCG (ECHCG (Barnyardgrass); rate 0.0625 kg/ha): 0.0
- Preemergence herbicidal rating ECHCG (ECHCG (Barnyardgrass); rate 0.1250 kg/ha): 1.0
- Preemergence herbicidal rating ECHCG (ECHCG (Barnyardgrass); rate 0.2500 kg/ha): 0.0
- Preemergence herbicidal rating IPOHE ([5]; rate 0.0156 kg/ha): 0.0
- Preemergence herbicidal rating IPOHE ([5]; rate 0.0313 kg/ha): 0.0
- Preemergence herbicidal rating IPOHE ([5]; rate 0.0625 kg/ha): 0.0
- Preemergence herbicidal rating IPOHE ([5]; rate 0.1250 kg/ha): 4.0
- Preemergence herbicidal rating IPOHE ([5]; rate 0.2500 kg/ha): 9.0
- Preemergence herbicidal rating ABUTH (ABUTH (Velvetleaf); rate 0.0156 kg/ha): 0.0
- Preemergence herbicidal rating ABUTH (ABUTH (Velvetleaf); rate 0.0313 kg/ha): 1.0
- Preemergence herbicidal rating ABUTH (ABUTH (Velvetleaf); rate 0.0625 kg/ha): 9.0
- Preemergence herbicidal rating ABUTH (ABUTH (Velvetleaf); rate 0.1250 kg/ha): 9.0
- Preemergence herbicidal rating ABUTH (ABUTH (Velvetleaf); rate 0.2500 kg/ha): 9.0
- Preemergence herbicidal rating GLXMAW ([6]; rate 0.0156 kg/ha): 0.0
- Preemergence herbicidal rating GLXMAW ([6]; rate 0.0313 kg/ha): 0.0
- Preemergence herbicidal rating GLXMAW ([6]; rate 0.0625 kg/ha): 1.0
- Preemergence herbicidal rating GLXMAW ([6]; rate 0.1250 kg/ha): 1.0
- Preemergence herbicidal rating GLXMAW ([6]; rate 0.2500 kg/ha): 1.0
- Preemergence herbicidal rating CASOB (CASOB (Sicklepod) [7]; rate 0.0156 kg/ha): 1.0
- Preemergence herbicidal rating CASOB (CASOB (Sicklepod) [7]; rate 0.0313 kg/ha): 0.0
- Preemergence herbicidal rating CASOB (CASOB (Sicklepod) [7]; rate 0.0625 kg/ha): 0.0
- Preemergence herbicidal rating CASOB (CASOB (Sicklepod) [7]; rate 0.1250 kg/ha): 9.0
- Preemergence herbicidal rating CASOB (CASOB (Sicklepod) [7]; rate 0.2500 kg/ha): 9.0
- Preemergence herbicidal rating ZEAMX (ZEAMX (Corn, Field); rate 0.0156 kg/ha): 0.0
- Preemergence herbicidal rating ZEAMX (ZEAMX (Corn, Field); rate 0.0313 kg/ha): 0.0
- Preemergence herbicidal rating ZEAMX (ZEAMX (Corn, Field); rate 0.0625 kg/ha): 1.0
- Preemergence herbicidal rating ZEAMX (ZEAMX (Corn, Field); rate 0.1250 kg/ha): 3.0
- Preemergence herbicidal rating ZEAMX (ZEAMX (Corn, Field); rate 0.2500 kg/ha): 3.0
- Herbicidal rating CYPIR (CYPIR (Rice Flatsedge); Rate 0.0313 kg/ha): 5.0
- Herbicidal rating CYPIR (CYPIR (Rice Flatsedge); Rate 0.0625 kg/ha): 7.0
- Herbicidal rating CYPIR (CYPIR (Rice Flatsedge); Rate 0.1250 kg/ha): 7.0
- Herbicidal rating CYPIR (CYPIR (Rice Flatsedge); Rate 0.2500 kg/ha): 7.0

SMILES: C[C@@H](C(=O)OC(C)(C)C)N1C(=O)CSC1=Nc1cc(-n2c(=O)cc(C(F)(F)F)n(C)c2=O)c(F)cc1Cl [Compound 75, tert-Butyl 2-{{2-chloro-5-[3,6-dihydro-3-methyl-2,6-dioxo-4-(trifluoromethyl)-1(2H)-pyrimidinyl]-4-fluorophenyl}imino}-α-methyl-4-oxo-3-thiazolidineacetate, L-]
- AMBEL herbicidal rating (AMBEL (Ragweed, Common); rate 0.0158 kg/ha): 7.0
- AMBEL herbicidal rating (AMBEL (Ragweed, Common); rate 0.0315 kg/ha): 5.0
- AMBEL herbicidal rating (AMBEL (Ragweed, Common); rate 0.0630 kg/ha): 9.0
- SAGPY herbicidal effect rating ([1]; 0.0313 kg/ha): 0.0
- SAGPY herbicidal effect rating ([1]; 0.0625 kg/ha): 0.0
- SAGPY herbicidal effect rating ([1]; 0.1250 kg/ha): 0.0
- SAGPY herbicidal effect rating ([1]; 0.2500 kg/ha): 3.0
- GALAP herbicidal rating (GALAP (Galium); rate 0.0158 kg/ha): 1.0
- GALAP herbicidal rating (GALAP (Galium); rate 0.0315 kg/ha): 2.0
- GALAP herbicidal rating (GALAP (Galium); rate 0.0630 kg/ha): 5.0
- Preemergence herbicidal rating TRZAWR ([2]; rate 0.0156 kg/ha): 0.0
- Preemergence herbicidal rating TRZAWR ([2]; rate 0.0313 kg/ha): 0.0
- Preemergence herbicidal rating TRZAWR ([2]; rate 0.0625 kg/ha): 0.0
- Preemergence herbicidal rating TRZAWR ([2]; rate 0.1250 kg/ha): 1.0
- Preemergence herbicidal rating TRZAWR ([2]; rate 0.2500 kg/ha): 2.0
- CASOB herbicidal rating (CASOB (Sicklepod) [3]; rate 0.0158 kg/ha): 1.0
- CASOB herbicidal rating (CASOB (Sicklepod) [3]; rate 0.0315 kg/ha): 1.0
- CASOB herbicidal rating (CASOB (Sicklepod) [3]; rate 0.0630 kg/ha): 3.0
- IPOHE herbicidal rating ([4]; rate 0.0158 kg/ha): 7.0
- IPOHE herbicidal rating ([4]; rate 0.0315 kg/ha): 7.0
- IPOHE herbicidal rating ([4]; rate 0.0630 kg/ha): 9.0
- Preemergence herbicidal rating ECHCG (ECHCG (Barnyardgrass); rate 0.0156 kg/ha): 0.0
- Preemergence herbicidal rating ECHCG (ECHCG (Barnyardgrass); rate 0.0313 kg/ha): 0.0
- Preemergence herbicidal rating ECHCG (ECHCG (Barnyardgrass); rate 0.0625 kg/ha): 0.0
- Preemergence herbicidal rating ECHCG (ECHCG (Barnyardgrass); rate 0.1250 kg/ha): 0.0
- Preemergence herbicidal rating ECHCG (ECHCG (Barnyardgrass); rate 0.2500 kg/ha): 2.0
- Preemergence herbicidal rating IPOHE ([5]; rate 0.0156 kg/ha): 0.0
- Preemergence herbicidal rating IPOHE ([5]; rate 0.0313 kg/ha): 0.0
- Preemergence herbicidal rating IPOHE ([5]; rate 0.0625 kg/ha): 0.0
- Preemergence herbicidal rating IPOHE ([5]; rate 0.1250 kg/ha): 0.0
- Preemergence herbicidal rating IPOHE ([5]; rate 0.2500 kg/ha): 2.0
- Preemergence herbicidal rating ABUTH (ABUTH (Velvetleaf); rate 0.0156 kg/ha): 0.0
- Preemergence herbicidal rating ABUTH (ABUTH (Velvetleaf); rate 0.0313 kg/ha): 0.0
- Preemergence herbicidal rating ABUTH (ABUTH (Velvetleaf); rate 0.0625 kg/ha): 9.0
- Preemergence herbicidal rating ABUTH (ABUTH (Velvetleaf); rate 0.1250 kg/ha): 9.0
- Preemergence herbicidal rating ABUTH (ABUTH (Velvetleaf); rate 0.2500 kg/ha): 9.0
- Preemergence herbicidal rating GLXMAW ([6]; rate 0.0156 kg/ha): 0.0
- Preemergence herbicidal rating GLXMAW ([6]; rate 0.0313 kg/ha): 0.0
- Preemergence herbicidal rating GLXMAW ([6]; rate 0.0625 kg/ha): 0.0
- Preemergence herbicidal rating GLXMAW ([6]; rate 0.1250 kg/ha): 2.0
- Preemergence herbicidal rating GLXMAW ([6]; rate 0.2500 kg/ha): 2.0
- Preemergence herbicidal rating CASOB (CASOB (Sicklepod) [7]; rate 0.0156 kg/ha): 0.0
- Preemergence herbicidal rating CASOB (CASOB (Sicklepod) [7]; rate 0.0313 kg/ha): 0.0
- Preemergence herbicidal rating CASOB (CASOB (Sicklepod) [7]; rate 0.0625 kg/ha): 0.0
- Preemergence herbicidal rating CASOB (CASOB (Sicklepod) [7]; rate 0.1250 kg/ha): 1.0
- Preemergence herbicidal rating CASOB (CASOB (Sicklepod) [7]; rate 0.2500 kg/ha): 1.0
- Preemergence herbicidal rating ZEAMX (ZEAMX (Corn, Field); rate 0.0156 kg/ha): 0.0
- Preemergence herbicidal rating ZEAMX (ZEAMX (Corn, Field); rate 0.0313 kg/ha): 0.0
- Preemergence herbicidal rating ZEAMX (ZEAMX (Corn, Field); rate 0.0625 kg/ha): 0.0
- Preemergence herbicidal rating ZEAMX (ZEAMX (Corn, Field); rate 0.1250 kg/ha): 1.0
- Preemergence herbicidal rating ZEAMX (ZEAMX (Corn, Field); rate 0.2500 kg/ha): 3.0
- Herbicidal rating CYPIR (CYPIR (Rice Flatsedge); Rate 0.0313 kg/ha): 0.0
- Herbicidal rating CYPIR (CYPIR (Rice Flatsedge); Rate 0.0625 kg/ha): 0.0
- Herbicidal rating CYPIR (CYPIR (Rice Flatsedge); Rate 0.1250 kg/ha): 6.0
- Herbicidal rating CYPIR (CYPIR (Rice Flatsedge); Rate 0.2500 kg/ha): 6.0
